In patent US9814730B2 (FLAMINA HOLDING AG, priority 2013, dated 2017):

Tested on: autocrine HCG production in adult cells
Assay: Inhibition of autocrine HCG production in adult cells (in vitro experiments)
Type: cell-based, human
Settings: very low amount of active agent
Procedure: Extrapolations of in vitro experiments indicate that already 0.1 mg to 2 mg per kg body weight and per year, preferably 0.5 mg to 1 mg per kg body weight and per year of the active agent are sufficient. However, as detailed below the dosage can be up to a factor 5 higher and can thus range between 0.1 mg to 10 mg per kg body weight and per year.

C/C=C\[C@]1(O)CC[C@H]2[C@@H]3CCC4=CC(=O)CCC4=C3[C@@H](c3ccc(N(C)C)cc3)C[C@@]21C [RU534, Aglepristone]
inhibition of autocrine HCG production: successfully achieved
